Source: patent publication US20200341014A1, “PD Marker of Hepatocyte Growth Factor (HGF)” (EISAI R&D MANAGEMENT CO., LTD., priority 2016, published 2020)

How the values were obtained:
ApoA4 mRNA [1] = assay: Real-time PCR of liver ApoA4 mRNA in mice administered rh-HGF and c-Met inhibitor (Example 2); assay type: in vivo, mouse; conditions: rh-HGF 0.5-15 mg/kg intravenous, 24 hours; FIG. 2
Method: To BALB/cAnNCrlCrlj male 6 weeks-old mice (CHARLES RIVER JAPAN), c-Met inhibitor PF-04217903 (50 mg/kg) (Selleck Chemicals #S1094, lot. 05) or vehicle (5% DMSO, 10% Tween80, 6.7 mmol/L aqueous hydrochloric acid solution) was orally administered at a dose of 10 mL/kg, and after 1 hour, rh-HGF (0.5, 1.5, 5.0, or 15 mg/kg) or PBS was intravenously administered. […] After euthanization, hepatic tissue was collected and immersed in RNA later (Ambion, #AM7021). Serum was collected from the blood collected.
From the harvested liver, total RNA was purified with TRIZOL Reagent (Invitrogen, #15596-018), RNeasy Mini Kit (QIAGEN, #74104), and RNase-Free DNase set (QIAGEN, #79254), and RNA concentration was measured by absorbance.
Quantification of ApoA4 mRNA by real-time PCR method was carried out according to Example 1.
With the results of ApoA4 mRNA quantification, Dunnett's multiple comparison test was carried out between the control and the rh-HGF administration groups.

human ApoA4 protein = assay: Western blot quantification of human ApoA4 protein in human hepatocyte culture supernatant; assay type: cell-based; conditions: human primary culture hepatocytes, culture supernatant, rh-HGF 100, 300 or 1000 ng/mL, 24 hours; FIG. 6
Method: Human primary culture hepatocytes seeded in a 24-well plate (3.8×10^5 cells/well, Biopredic International, #HEP220-MW24) were cultured for three days in Incubation Medium (product name: Biopredic International, #MIL214), then c-Met inhibitor PF-04217903 (final concentration 100 nmol/L) (Selleck Chemicals, #S1094, lot. 05) or vehicle (DMSO) was added, and after 1 hour, rh-HGF (final concentration 100, 300, or 1000 ng/mL) or (Incubation Medium) for the control group (Control) was added.
Using hepatocyte culture supernatant (the same culture supernatant as that of cells for preparation of mRNA) 24 Hours after addition of rh-HGF, ApoA4 protein was quantified by Western blot method. […] After washing three times with the above wash solution, chemiluminescence solution SuperSignal West Dura Extended Duration Substrate (Thermo Scientific) was added to allow luminescence, and ApoA4 protein was detected with LAS-4000 (FUJIFILM).
With the quantification results of ApoA4 protein, Dunnett's multiple comparison test was carried out between the control and the rh-HGF administration groups.

ApoA4 mRNA [2] = assay: Real-time PCR of ApoA4 mRNA from liver of healthy mice administered rh-HGF (Example 1); assay type: in vivo, mouse; conditions: rh-HGF 1.5 mg/kg intravenous, 8 and 24 hr; FIG. 1
Method: (§1) Using hepatocyte growth factor activator recombinantly expressed in Chinese hamster ovary (CHO) cells, human HGF recombinantly expressed in CHO cells were activated to obtain rh-HGF. BALB/cAnNCrlCrlj male 6 weeks-old mice (CHARLES RIVER JAPAN) were intravenously administered with Dulbecco's Phosphate buffered saline (PBS) (Wako, #045-29795) or rh-HGF (1.5 mg/kg). […] After euthanization, hepatic tissue was collected and immersed in RNA later (Ambion, #AM7021).
The same RNA as the sample employed for DNA microarray was reverse transcripted using High-Capacity cDNA Reverse Transcription Kit with RNase Inhibitor (Applied Biosystems, #4374966) to create cDNA. With the cDNA obtained as the template, the amount of ApoA4 mRNA expressed was examined by real-time PCR method. Hprt mRNA was used as the internal control for examination. For PCR reaction, PCR amplification reaction was carried out with TaqMan Fast Advanced Master Mix (Applied Biosystems, #4444557) and TaqMan Assay (ApoA4: Mm00431814_m1, Hprt: Mm03024075_m1, Applied Biosystems) and using ViiA7 Real-time PCR System (Applied Biosystems). […]
With the results of ApoA4 mRNA quantification, Dunnett's multiple comparison test was carried out between the control and the rh-HGF administration groups (FIG. 1).

ApoA4 gene expression = assay: DNA microarray analysis of hepatic tissue of healthy mice administered rh-HGF; assay type: in vivo, mouse
Method: as §1
From the harvested liver, total RNA was purified with TRIZOL Reagent (Invitrogen, #15596-018), RNeasy Mini Kit (QIAGEN, #74104), and RNase-Free DNase set (QIAGEN, #79254). RNA concentration was measured by absorbance, and then quality check was carried out with RNA 6000 Nano Assay Kit (Agilent Technologies, #5067-1511) using 2100 Bioanalyzer (Agilent Technologies).
The DNA microarray used was SurePrint G3 mouse GE 8×60K (Agilent Technologies, #G4852A). […] Among this, as molecules that may appear to possibly exist as soluble proteins, those having information of “Extracellular” or “Plasma membrane” in Gene Ontology annotation were extracted.

With “rh-HGF: human HGF recombinantly expressed in CHO cells, activated with hepatocyte growth factor activator recombinantly expressed in CHO cells” the “ApoA4 mRNA expression in the liver” value (ApoA4 mRNA [1]) was “significantly induced/enhanced”, the “Extracellular release of human ApoA4 protein” value (human ApoA4 protein) was “strongly enhanced” and the “ApoA4 mRNA expression in liver (real-time PCR, Hprt internal control)” value (ApoA4 mRNA [2]) was “strongly enhanced”. The “Signal value (average) 8 hours, ApoA4 (A_51_P327491)” value (ApoA4 gene expression; liver, 8 hr after rh-HGF 1.5 mg/kg intravenous) was 15738, the “Change in expression (vs 0 hours) 8 hours Ratio, ApoA4” value (ApoA4 gene expression; liver, 8 hr after rh-HGF 1.5 mg/kg intravenous, vs PBS group) was 6.46 and the “Signal value (average) 24 hours, ApoA4 (A_51_P327491)” value (ApoA4 gene expression; liver, 24 hr after rh-HGF 1.5 mg/kg intravenous) was 13453. The “Change in expression (vs 0 hours) 24 hours Ratio, ApoA4” value (ApoA4 gene expression; liver, 24 hr after rh-HGF 1.5 mg/kg intravenous, vs PBS group) was 5.52 and the “ApoA4 expression in liver (DNA microarray)” value (ApoA4 gene expression; rh-HGF 1.5 mg/kg intravenous vs PBS only (Group 1)) was “enhancement of expression”.
